Measurements taken from ChEMBL document CHEMBL1201862, “PubChem BioAssay data set” (2004).
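Results reflect a 48-hour exposure of cells in 96-well plates to compound at five concentrations. GI50 is the concentration that inhibits growth by half.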 Calls of active or inactive are those of the source. No stated cut-off is given here; in the data, active = GI50 up to about 1.1 µM and inactive = higher.

Legend:
Test in all cases: NCI tumour cell line growth inhibition, 48 h
A498 = tested on: A498
A549 = tested on: A549
CAKI-1 = tested on: CAKI-1
CCRF-CEM = tested on: CCRF-CEM
COLO 205 = tested on: COLO 205
DLD-1 = tested on: DLD-1
DMS-114 = tested on: DMS-114
DMS-273 = tested on: DMS-273
EKVX = tested on: EKVX
HCC 2998 = tested on: HCC 2998
HCT-116 = tested on: HCT-116
HCT-15 = tested on: HCT-15
HL-60 = tested on: HL-60
HOP-18 = tested on: HOP-18
HOP-62 = tested on: HOP-62
HOP-92 = tested on: HOP-92
HT-29 = tested on: HT-29
IGROV-1 = tested on: IGROV-1
K562 = tested on: K562
KM-20L2 = tested on: KM-20L2
KM12 = tested on: KM12
LOX IMVI = tested on: LOX IMVI
M19-MEL = tested on: M19-MEL
MCF7 = tested on: MCF7
MOLT-4 = tested on: MOLT-4
Malme-3M = tested on: Malme-3M
NCI-H226 = tested on: NCI-H226
NCI-H23 = tested on: NCI-H23
NCI-H460 = tested on: NCI-H460
NCI-H522 = tested on: NCI-H522
NCI/ADR-RES = tested on: NCI/ADR-RES
OVCAR-3 = tested on: OVCAR-3
OVCAR-4 = tested on: OVCAR-4
OVCAR-5 = tested on: OVCAR-5
OVCAR-8 = tested on: OVCAR-8
RPMI-8226 = tested on: RPMI-8226
RXF 393 = tested on: RXF 393
SF-268 = tested on: SF-268
SF-295 = tested on: SF-295
SF-539 = tested on: SF-539
SK-MEL-28 = tested on: SK-MEL-28
SK-MEL-2 = tested on: SK-MEL-2
SK-MEL-5 = tested on: SK-MEL-5
SK-OV-3 = tested on: SK-OV-3
SN12C = tested on: SN12C
SNB-19 = tested on: SNB-19
SNB-75 = tested on: SNB-75
SNB-78 = tested on: SNB-78
SW-620 = tested on: SW-620
U-251 = tested on: U-251
UACC-257 = tested on: UACC-257
UACC-62 = tested on: UACC-62
UO-31 = tested on: UO-31
XF498 = tested on: XF498
786-0 = tested on: 786-0
ACHN = tested on: ACHN
LXFL 529 = tested on: LXFL 529
M14 = tested on: M14
SR = tested on: SR
TK-10 = tested on: TK-10
BT-549 = tested on: BT-549
DU-145 = tested on: DU-145
Hs-578T = tested on: Hs-578T
MDA-MB-231 = tested on: MDA-MB-231
MDA-MB-435 = tested on: MDA-MB-435
MDA-N = tested on: MDA-N
PC-3 = tested on: PC-3
T47D = tested on: T47D

CN(C(=O)c1ccc(OCCCC(=O)O)c(Cl)c1Cl)C1CCCC1
GI50 (A498): > 89.5 µM (inactive) | GI50 (A549): > 100 µM (inactive) | GI50 (CAKI-1): > 28.6 µM (inactive) | GI50 (CCRF-CEM): > 100 µM (inactive) | GI50 (COLO 205): > 100 µM (inactive) | GI50 (DLD-1): > 100 µM (inactive) | GI50 (DMS-114): 69.5 µM (inactive) | GI50 (DMS-273): > 100 µM (inactive) | GI50 (EKVX): > 100 µM (inactive) | GI50 (HCC 2998): > 100 µM (inactive) | GI50 (HCT-116): > 62.8 µM (inactive) | GI50 (HCT-15): > 100 µM | GI50 (HL-60): > 72.8 µM (inactive) | GI50 (HOP-18): > 73.1 µM (inactive) | GI50 (HOP-62): > 100 µM (inactive) | GI50 (HOP-92): 45.3 µM (inactive) | GI50 (HT-29): > 100 µM (inactive) | GI50 (IGROV-1): > 100 µM (inactive) | GI50 (K562): > 100 µM (inactive) | GI50 (KM-20L2): > 100 µM (inactive) | GI50 (KM12): > 100 µM (inactive) | GI50 (LOX IMVI): > 100 µM (inactive) | GI50 (M19-MEL): > 100 µM (inactive) | GI50 (MCF7): > 100 µM (inactive) | GI50 (MOLT-4): > 100 µM (inactive) | GI50 (Malme-3M): > 100 µM (inactive) | GI50 (NCI-H226): 83.8 µM (inactive) | GI50 (NCI-H23): > 76.7 µM (inactive) | GI50 (NCI-H460): > 95.3 µM (inactive) | GI50 (NCI-H522): 42.6 µM (inactive) | GI50 (NCI/ADR-RES): > 100 µM (inactive) | GI50 (OVCAR-3): > 100 µM (inactive) | GI50 (OVCAR-4): > 100 µM (inactive) | GI50 (OVCAR-5): > 100 µM (inactive) | GI50 (OVCAR-8): > 100 µM (inactive) | GI50 (RPMI-8226): 98.6 µM (inactive) | GI50 (RXF 393): > 71.1 µM (inactive) | GI50 (SF-268): > 96.4 µM (inactive) | GI50 (SF-295): > 72.6 µM (inactive) | GI50 (SF-539): > 100 µM (inactive) | GI50 (SK-MEL-28): > 100 µM (inactive) | GI50 (SK-MEL-2): > 79.8 µM (inactive) | GI50 (SK-MEL-5): > 100 µM (inactive) | GI50 (SK-OV-3): > 100 µM (inactive) | GI50 (SN12C): > 100 µM (inactive) | GI50 (SNB-19): > 100 µM (inactive) | GI50 (SNB-75): 80.4 µM (inactive) | GI50 (SNB-78): > 100 µM (inactive) | GI50 (SW-620): > 100 µM (inactive) | GI50 (U-251): > 100 µM (inactive) | GI50 (UACC-257): > 100 µM (inactive) | GI50 (UACC-62): > 100 µM (inactive) | GI50 (UO-31): > 60 µM (inactive) | GI50 (XF498): 28.4 µM (inactive)

Cn1cnc([N+](=O)[O-])c1SC1=NCCS1
GI50 (786-0): > 100 µM (inactive) | GI50 (A498): > 100 µM (inactive) | GI50 (A549): > 100 µM (inactive) | GI50 (ACHN): 91 µM (inactive) | GI50 (CAKI-1): > 100 µM (inactive) | GI50 (CCRF-CEM): 28.2 µM (inactive) | GI50 (COLO 205): 70 µM (inactive) | GI50 (DLD-1): 31.4 µM (inactive) | GI50 (DMS-273): 98.6 µM (inactive) | GI50 (EKVX): > 100 µM (inactive) | GI50 (HCC 2998): > 100 µM (inactive) | GI50 (HCT-116): 50 µM (inactive) | GI50 (HOP-18): 4.24 µM (inactive) | GI50 (HOP-62): > 100 µM (inactive) | GI50 (HOP-92): 37.4 µM (inactive) | GI50 (HT-29): > 100 µM (inactive) | GI50 (IGROV-1): > 100 µM (inactive) | GI50 (K562): 28 µM (inactive) | GI50 (KM12): > 100 µM (inactive) | GI50 (LOX IMVI): 17.3 µM (inactive) | GI50 (LXFL 529): 27 µM (inactive) | GI50 (M14): 48 µM (inactive) | GI50 (M19-MEL): 49.4 µM (inactive) | GI50 (MOLT-4): 25.6 µM (inactive) | GI50 (Malme-3M): 22 µM (inactive) | GI50 (NCI-H226): > 100 µM (inactive) | GI50 (NCI-H23): 81.1 µM (inactive) | GI50 (NCI-H460): > 100 µM (inactive) | GI50 (NCI-H522): 16.7 µM (inactive) | GI50 (OVCAR-3): > 100 µM (inactive) | GI50 (OVCAR-4): 89.9 µM (inactive) | GI50 (OVCAR-5): > 100 µM (inactive) | GI50 (OVCAR-8): > 100 µM (inactive) | GI50 (RPMI-8226): 36.7 µM (inactive) | GI50 (SF-268): > 100 µM (inactive) | GI50 (SF-295): > 100 µM (inactive) | GI50 (SF-539): > 100 µM (inactive) | GI50 (SK-MEL-28): 55 µM (inactive) | GI50 (SK-MEL-2): 47.4 µM (inactive) | GI50 (SK-MEL-5): > 100 µM (inactive) | GI50 (SK-OV-3): > 100 µM (inactive) | GI50 (SN12C): > 100 µM (inactive) | GI50 (SNB-19): > 100 µM (inactive) | GI50 (SNB-75): > 100 µM (inactive) | GI50 (SNB-78): 42.9 µM (inactive) | GI50 (SR): 24.5 µM (inactive) | GI50 (SW-620): 47.6 µM (inactive) | GI50 (TK-10): > 100 µM (inactive) | GI50 (U-251): > 100 µM (inactive) | GI50 (UACC-257): 72.8 µM (inactive) | GI50 (UACC-62): 51.2 µM (inactive) | GI50 (UO-31): 74.6 µM (inactive) | GI50 (XF498): > 100 µM (inactive)

CC(=O)NCCCCCCNC(C)=O [HEXAMETHYLENEBISACETAMIDE]
GI50 (786-0): > 10000 µM (inactive) | GI50 (A498): 5790 µM (inactive) | GI50 (A549): 2290 µM (inactive) | GI50 (ACHN): > 10000 µM (inactive) | GI50 (BT-549): > 10000 µM (inactive) | GI50 (CAKI-1): 1790 µM (inactive) | GI50 (CCRF-CEM): 7670 µM (inactive) | GI50 (COLO 205): 5380 µM (inactive) | GI50 (DLD-1): 8240 µM (inactive) | GI50 (DMS-114): 3860 µM (inactive) | GI50 (DMS-273): 3600 µM (inactive) | GI50 (DU-145): > 8830 µM (inactive) | GI50 (EKVX): 7280 µM (inactive) | GI50 (HCC 2998): 4290 µM (inactive) | GI50 (HCT-116): 8470 µM (inactive) | GI50 (HCT-15): 5530 µM | GI50 (HL-60): 3450 µM (inactive) | GI50 (HOP-18): 7530 µM (inactive) | GI50 (HOP-62): 6590 µM (inactive) | GI50 (HOP-92): 3560 µM (inactive) | GI50 (HT-29): 4840 µM (inactive) | GI50 (Hs-578T): 5790 µM (inactive) | GI50 (IGROV-1): 9180 µM (inactive) | GI50 (K562): 5740 µM (inactive) | GI50 (KM-20L2): 5220 µM (inactive) | GI50 (KM12): 8450 µM (inactive) | GI50 (LOX IMVI): 4680 µM (inactive) | GI50 (M14): 6040 µM (inactive) | GI50 (M19-MEL): 5750 µM (inactive) | GI50 (MCF7): 3480 µM (inactive) | GI50 (MDA-MB-231): 4180 µM (inactive) | GI50 (MDA-MB-435): 4010 µM (inactive) | GI50 (MDA-N): 7570 µM (inactive) | GI50 (MOLT-4): 7280 µM (inactive) | GI50 (Malme-3M): 3160 µM (inactive) | GI50 (NCI-H226): 6810 µM (inactive) | GI50 (NCI-H23): 9160 µM (inactive) | GI50 (NCI-H460): 4810 µM (inactive) | GI50 (NCI-H522): 3230 µM (inactive) | GI50 (NCI/ADR-RES): 7410 µM (inactive) | GI50 (OVCAR-3): 8180 µM (inactive) | GI50 (OVCAR-4): 6550 µM (inactive) | GI50 (OVCAR-5): 8240 µM (inactive) | GI50 (OVCAR-8): 7620 µM (inactive) | GI50 (PC-3): 8180 µM (inactive) | GI50 (RPMI-8226): 4650 µM (inactive) | GI50 (RXF 393): 9860 µM (inactive) | GI50 (SF-268): 8910 µM (inactive) | GI50 (SF-295): 6370 µM (inactive) | GI50 (SF-539): 6070 µM (inactive) | GI50 (SK-MEL-28): 6980 µM (inactive) | GI50 (SK-MEL-2): 6590 µM (inactive) | GI50 (SK-MEL-5): 6700 µM (inactive) | GI50 (SK-OV-3): 8930 µM (inactive) | GI50 (SN12C): 7500 µM (inactive) | GI50 (SNB-19): 8510 µM (inactive) | GI50 (SNB-75): 2840 µM (inactive) | GI50 (SNB-78): 6590 µM (inactive) | GI50 (SR): > 8530 µM (inactive) | GI50 (SW-620): > 3570 µM (inactive) | GI50 (T47D): > 5680 µM (inactive) | GI50 (TK-10): 4300 µM (inactive) | GI50 (U-251): 7830 µM (inactive) | GI50 (UACC-257): 7080 µM (inactive) | GI50 (UACC-62): 4050 µM (inactive) | GI50 (UO-31): 5250 µM (inactive) | GI50 (XF498): 3180 µM (inactive)
